Laboratory results from publication PMC7316778 (Nature Communications, 2020).
Values joined by “and” are separate entries in the source; they are usually repeats but may differ in a detail not shown here. Equal entries are not always repeated. Where two headings read alike, the source gives them in different places.

How the values were obtained:
PKN1 (PRK1) = PKN1 (PRK1) (Homo sapiens, UniProt Q16512); assay: SelectScreen kinase assay
Protocol: (§1) Selectivity profiling assays were performed by the Invitrogen SelectScreen™ Services. […] The concentration of ATP was selected to be equal to the KM, unless indicated otherwise.

MAPKAPK5 (PRAK) = target: T1, MAPKAPK5 (PRAK) (Homo sapiens, UniProt Q8IW41); assay: SelectScreen kinase assay
T1 sequence (Q8IW41 1-473): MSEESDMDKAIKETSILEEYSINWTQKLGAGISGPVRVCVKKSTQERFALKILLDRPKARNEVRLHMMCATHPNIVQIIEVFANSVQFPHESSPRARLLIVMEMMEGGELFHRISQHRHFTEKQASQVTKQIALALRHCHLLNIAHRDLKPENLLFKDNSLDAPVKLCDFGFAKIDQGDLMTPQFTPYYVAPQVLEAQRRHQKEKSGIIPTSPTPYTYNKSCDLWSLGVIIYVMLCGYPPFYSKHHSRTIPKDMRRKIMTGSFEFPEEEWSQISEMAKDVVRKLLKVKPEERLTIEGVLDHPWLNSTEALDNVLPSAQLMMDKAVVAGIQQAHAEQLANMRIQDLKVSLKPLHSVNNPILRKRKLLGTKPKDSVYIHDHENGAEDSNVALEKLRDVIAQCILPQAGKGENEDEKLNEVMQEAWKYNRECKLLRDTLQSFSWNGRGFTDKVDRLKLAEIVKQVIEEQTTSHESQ
Protocol: as §1

MARK2 = MARK2 (Homo sapiens, UniProt Q7KZI7); assay: SelectScreen kinase assay
Protocol: as §1

IRAK4 = IRAK4 (Homo sapiens, UniProt Q9NWZ3); assay: SelectScreen kinase assay
Protocol: as §1

~40 kDa protein = ~40 kDa protein (Homo sapiens, UniProt P28482); assay: Gel-based target engagement in HL-60 neutrophils; settings: HL-60, read-out: Inhibition of off-target labeling
Protocol: Data represent means ± SEM.
The term in situ is used to designate experiments in which live cell cultures are treated with inhibitor, whereas the term in vitro refers to experiments in which the inhibitor is incubated with cell lysates. Compounds were diluted in growth medium from a 1000x concentrated stock solution in DMSO. […] After 48 h, cells were treated with compound for 1 h. Cells were collected by suspension in PBS and centrifuged (1000g, 5 min, rt). Pellets were flash-frozen in liquid nitrogen and stored at −80 °C until use. For in situ treatment post-differentiation, HL-60 cells were differentiated as described above and incubated with compound for 1 h unless specified otherwise. Cells were collected by suspension for non-adherent cells and trypsinization for adherent cells. After collection, cells were centrifuged (200g, 5 min, rt) and washed in equal volume of PBS (1000g, 5 min, rt). Cell pellets were flash-frozen in liquid nitrogen and stored at −80 °C until use.

EPHA6 = EPHA6 (Homo sapiens, UniProt Q9UF33); assay: SelectScreen kinase assay
Protocol: as §1

BMPR1B (ALK6) = BMPR1B (ALK6) (Homo sapiens, UniProt O00238); assay: SelectScreen kinase assay
Protocol: as §1

DYRK4 = DYRK4 (Homo sapiens, UniProt Q9NR20); assay: SelectScreen kinase assay; format: biochemical
SNF1LK2 = SNF1LK2 (Homo sapiens, UniProt Q9H0K1); assay: SelectScreen kinase assay
Protocol: as §1

MASTL = MASTL (Homo sapiens, UniProt Q96GX5); assay: SelectScreen kinase assay
Protocol: as §1

PTK2B (FAK2) = PTK2B (FAK2) (Homo sapiens, UniProt Q14289); assay: SelectScreen kinase assay
Protocol: as §1

BMPR2 = target: T2, BMPR2 (Homo sapiens, UniProt Q13873); assay: SelectScreen kinase assay
T2 sequence (Q13873 27-1038): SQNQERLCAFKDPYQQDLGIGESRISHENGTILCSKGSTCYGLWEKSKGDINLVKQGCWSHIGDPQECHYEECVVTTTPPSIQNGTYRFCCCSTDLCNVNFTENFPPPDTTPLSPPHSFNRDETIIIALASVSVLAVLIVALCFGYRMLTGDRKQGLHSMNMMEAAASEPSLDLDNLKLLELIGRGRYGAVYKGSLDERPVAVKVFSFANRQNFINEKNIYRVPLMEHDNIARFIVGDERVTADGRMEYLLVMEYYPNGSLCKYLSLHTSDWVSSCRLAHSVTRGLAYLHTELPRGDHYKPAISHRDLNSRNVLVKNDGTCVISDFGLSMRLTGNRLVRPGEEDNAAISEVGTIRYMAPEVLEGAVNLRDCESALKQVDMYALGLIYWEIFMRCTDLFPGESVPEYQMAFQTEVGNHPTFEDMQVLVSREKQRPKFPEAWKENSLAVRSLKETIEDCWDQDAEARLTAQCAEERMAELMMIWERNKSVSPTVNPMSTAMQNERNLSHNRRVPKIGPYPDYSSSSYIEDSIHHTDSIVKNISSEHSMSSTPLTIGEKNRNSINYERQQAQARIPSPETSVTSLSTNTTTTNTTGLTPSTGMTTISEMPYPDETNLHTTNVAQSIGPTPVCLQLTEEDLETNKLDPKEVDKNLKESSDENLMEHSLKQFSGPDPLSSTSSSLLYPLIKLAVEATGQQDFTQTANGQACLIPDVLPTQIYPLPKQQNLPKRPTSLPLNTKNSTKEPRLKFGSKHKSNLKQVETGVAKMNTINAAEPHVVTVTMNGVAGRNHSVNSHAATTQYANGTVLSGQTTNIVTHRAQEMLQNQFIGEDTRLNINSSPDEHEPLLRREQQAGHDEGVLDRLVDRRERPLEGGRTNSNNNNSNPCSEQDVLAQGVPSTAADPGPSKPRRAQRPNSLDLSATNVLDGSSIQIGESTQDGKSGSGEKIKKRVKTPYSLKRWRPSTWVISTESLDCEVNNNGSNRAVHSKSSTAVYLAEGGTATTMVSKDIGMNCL
Protocol: as §1

GRK7 = GRK7 (Homo sapiens, UniProt Q8WTQ7); assay: SelectScreen kinase assay; settings: 1 h, 1 μM WEL028, 1 h preincubation
Protocol: as §1

SYK = SYK (Homo sapiens, UniProt P43405); assay: SelectScreen kinase assay
Protocol: as §1

[1] = 1 h, 1 μM WEL028, 1 h preincubation
[2] = 1 µM, ZLYTE, ATP Km app, listed as WEL028, 1 µM

DYRK4, sequence (Q9NR20 whole entry): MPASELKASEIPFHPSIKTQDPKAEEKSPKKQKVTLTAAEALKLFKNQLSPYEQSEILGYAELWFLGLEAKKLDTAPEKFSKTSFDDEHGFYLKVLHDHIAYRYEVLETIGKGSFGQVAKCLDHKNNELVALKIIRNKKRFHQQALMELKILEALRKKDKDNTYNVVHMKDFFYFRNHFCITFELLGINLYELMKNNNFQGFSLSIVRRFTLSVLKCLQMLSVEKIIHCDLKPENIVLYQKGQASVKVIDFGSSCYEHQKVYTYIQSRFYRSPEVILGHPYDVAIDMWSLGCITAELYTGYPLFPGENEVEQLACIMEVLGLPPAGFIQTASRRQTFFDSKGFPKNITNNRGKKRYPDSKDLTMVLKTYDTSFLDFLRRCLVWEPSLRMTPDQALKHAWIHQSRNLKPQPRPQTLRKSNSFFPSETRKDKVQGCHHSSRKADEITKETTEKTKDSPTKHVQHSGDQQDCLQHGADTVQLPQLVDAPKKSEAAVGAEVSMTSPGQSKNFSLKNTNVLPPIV
PTK2B (FAK2), sequence (Q14289 whole entry): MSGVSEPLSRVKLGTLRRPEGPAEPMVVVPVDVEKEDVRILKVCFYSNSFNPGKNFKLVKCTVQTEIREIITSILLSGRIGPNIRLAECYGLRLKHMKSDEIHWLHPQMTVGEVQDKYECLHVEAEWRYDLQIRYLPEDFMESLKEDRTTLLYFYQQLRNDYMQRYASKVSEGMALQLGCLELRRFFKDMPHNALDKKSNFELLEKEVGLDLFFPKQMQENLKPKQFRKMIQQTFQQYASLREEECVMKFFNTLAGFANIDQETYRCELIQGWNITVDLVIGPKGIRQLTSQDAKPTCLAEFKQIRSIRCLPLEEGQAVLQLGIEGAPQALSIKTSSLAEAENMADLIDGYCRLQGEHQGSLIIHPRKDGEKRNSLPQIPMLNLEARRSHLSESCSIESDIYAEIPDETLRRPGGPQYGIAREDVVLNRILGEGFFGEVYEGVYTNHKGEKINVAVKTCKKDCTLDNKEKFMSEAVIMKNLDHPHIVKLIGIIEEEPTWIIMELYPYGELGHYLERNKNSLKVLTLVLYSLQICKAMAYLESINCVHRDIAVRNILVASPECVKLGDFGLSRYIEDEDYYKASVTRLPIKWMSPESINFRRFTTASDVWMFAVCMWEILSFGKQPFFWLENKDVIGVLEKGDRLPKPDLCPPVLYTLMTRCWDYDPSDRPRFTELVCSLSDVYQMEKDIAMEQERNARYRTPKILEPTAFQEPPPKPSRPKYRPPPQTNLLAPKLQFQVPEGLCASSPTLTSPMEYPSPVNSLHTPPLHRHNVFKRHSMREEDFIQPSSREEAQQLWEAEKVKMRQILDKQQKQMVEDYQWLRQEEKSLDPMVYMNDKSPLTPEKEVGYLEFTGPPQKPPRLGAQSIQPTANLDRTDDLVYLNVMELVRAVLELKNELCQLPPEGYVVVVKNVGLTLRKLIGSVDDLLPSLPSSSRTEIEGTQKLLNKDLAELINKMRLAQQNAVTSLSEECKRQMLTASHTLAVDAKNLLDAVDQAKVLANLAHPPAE
PKN1 (PRK1), sequence (Q16512 whole entry): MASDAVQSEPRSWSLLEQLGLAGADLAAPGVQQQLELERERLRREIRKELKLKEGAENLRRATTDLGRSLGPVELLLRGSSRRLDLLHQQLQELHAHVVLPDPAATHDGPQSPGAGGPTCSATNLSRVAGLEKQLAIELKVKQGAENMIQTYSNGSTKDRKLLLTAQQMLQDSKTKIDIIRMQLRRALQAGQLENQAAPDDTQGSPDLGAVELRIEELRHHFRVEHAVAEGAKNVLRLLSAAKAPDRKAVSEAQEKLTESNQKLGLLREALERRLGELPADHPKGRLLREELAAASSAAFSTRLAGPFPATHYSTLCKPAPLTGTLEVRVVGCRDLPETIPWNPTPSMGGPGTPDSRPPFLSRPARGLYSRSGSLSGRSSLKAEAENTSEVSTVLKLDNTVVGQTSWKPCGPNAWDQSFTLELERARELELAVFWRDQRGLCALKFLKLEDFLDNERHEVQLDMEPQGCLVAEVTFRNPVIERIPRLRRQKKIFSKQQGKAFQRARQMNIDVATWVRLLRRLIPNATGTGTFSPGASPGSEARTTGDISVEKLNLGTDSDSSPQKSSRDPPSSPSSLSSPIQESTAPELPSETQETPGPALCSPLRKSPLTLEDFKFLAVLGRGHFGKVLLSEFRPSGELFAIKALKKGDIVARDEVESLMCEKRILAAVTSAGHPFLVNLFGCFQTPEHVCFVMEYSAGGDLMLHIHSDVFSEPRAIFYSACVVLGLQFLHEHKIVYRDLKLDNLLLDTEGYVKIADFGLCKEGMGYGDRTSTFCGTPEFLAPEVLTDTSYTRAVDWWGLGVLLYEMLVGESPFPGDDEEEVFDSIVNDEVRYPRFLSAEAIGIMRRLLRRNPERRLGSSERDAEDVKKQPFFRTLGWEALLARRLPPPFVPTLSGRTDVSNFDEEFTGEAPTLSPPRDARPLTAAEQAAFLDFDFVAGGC
MASTL, sequence (Q96GX5 whole entry): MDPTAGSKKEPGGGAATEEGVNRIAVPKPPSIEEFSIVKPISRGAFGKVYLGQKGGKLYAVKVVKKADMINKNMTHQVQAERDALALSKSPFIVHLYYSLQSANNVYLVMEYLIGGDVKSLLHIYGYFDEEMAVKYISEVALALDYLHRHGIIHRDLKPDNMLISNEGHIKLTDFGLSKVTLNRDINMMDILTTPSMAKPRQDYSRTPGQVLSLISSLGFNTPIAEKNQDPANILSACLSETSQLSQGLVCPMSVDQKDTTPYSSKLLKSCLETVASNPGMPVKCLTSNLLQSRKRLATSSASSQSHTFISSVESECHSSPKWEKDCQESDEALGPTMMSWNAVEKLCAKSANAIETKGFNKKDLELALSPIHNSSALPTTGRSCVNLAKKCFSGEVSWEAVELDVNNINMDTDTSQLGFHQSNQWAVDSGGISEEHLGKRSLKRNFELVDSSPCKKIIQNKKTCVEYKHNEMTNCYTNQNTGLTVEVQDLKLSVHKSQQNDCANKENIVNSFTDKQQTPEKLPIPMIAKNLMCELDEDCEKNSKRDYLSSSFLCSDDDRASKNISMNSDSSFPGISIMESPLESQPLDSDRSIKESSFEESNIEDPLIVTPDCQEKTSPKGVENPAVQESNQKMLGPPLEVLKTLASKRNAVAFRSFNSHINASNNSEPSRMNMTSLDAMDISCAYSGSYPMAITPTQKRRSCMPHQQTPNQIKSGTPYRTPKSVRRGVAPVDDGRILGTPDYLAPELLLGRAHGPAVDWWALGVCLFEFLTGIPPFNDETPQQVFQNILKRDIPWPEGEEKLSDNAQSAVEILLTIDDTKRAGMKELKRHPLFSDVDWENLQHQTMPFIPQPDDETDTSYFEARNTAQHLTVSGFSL
SNF1LK2, sequence (Q9H0K1 whole entry): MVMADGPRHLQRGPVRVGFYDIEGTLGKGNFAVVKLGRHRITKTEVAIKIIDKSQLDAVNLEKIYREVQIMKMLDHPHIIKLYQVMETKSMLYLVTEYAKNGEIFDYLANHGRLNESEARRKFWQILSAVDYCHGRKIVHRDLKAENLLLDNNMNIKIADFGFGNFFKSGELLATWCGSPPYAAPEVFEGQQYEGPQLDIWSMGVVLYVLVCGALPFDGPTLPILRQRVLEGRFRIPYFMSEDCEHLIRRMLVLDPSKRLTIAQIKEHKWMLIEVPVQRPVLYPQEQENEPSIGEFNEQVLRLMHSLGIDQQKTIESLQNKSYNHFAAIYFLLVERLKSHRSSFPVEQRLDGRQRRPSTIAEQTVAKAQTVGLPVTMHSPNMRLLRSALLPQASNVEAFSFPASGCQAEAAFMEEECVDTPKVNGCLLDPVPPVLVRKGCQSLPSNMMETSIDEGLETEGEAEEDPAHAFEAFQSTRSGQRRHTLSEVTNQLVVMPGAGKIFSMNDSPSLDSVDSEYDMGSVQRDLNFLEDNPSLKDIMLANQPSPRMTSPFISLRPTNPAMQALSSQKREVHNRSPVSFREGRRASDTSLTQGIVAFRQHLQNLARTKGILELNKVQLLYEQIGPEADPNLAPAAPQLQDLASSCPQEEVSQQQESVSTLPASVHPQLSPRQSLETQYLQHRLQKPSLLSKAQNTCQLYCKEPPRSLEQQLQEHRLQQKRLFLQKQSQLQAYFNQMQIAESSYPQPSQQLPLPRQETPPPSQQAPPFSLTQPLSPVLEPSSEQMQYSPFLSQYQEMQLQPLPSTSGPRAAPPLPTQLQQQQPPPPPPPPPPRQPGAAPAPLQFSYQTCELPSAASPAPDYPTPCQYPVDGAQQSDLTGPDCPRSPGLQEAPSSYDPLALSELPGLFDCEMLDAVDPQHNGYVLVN
IRAK4, sequence (Q9NWZ3 whole entry): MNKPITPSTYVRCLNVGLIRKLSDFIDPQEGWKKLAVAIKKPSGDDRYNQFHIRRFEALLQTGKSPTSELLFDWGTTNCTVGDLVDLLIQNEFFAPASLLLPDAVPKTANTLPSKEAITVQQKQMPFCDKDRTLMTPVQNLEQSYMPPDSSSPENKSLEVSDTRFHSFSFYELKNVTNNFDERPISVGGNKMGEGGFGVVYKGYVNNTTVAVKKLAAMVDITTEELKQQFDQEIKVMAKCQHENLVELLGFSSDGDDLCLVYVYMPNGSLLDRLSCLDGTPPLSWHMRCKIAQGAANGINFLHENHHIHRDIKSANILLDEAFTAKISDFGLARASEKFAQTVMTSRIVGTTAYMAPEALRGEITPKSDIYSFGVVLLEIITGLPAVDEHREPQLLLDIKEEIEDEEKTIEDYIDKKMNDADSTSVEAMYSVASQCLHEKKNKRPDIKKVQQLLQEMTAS

`C#CCOc1ccc(Nc2ncc(Cl)c(Nc3ccccc3NC(=O)C=C)n2)c(OC)c1` [Compound 6] was tested, and the inhibition at 1 µM (PKN1 (PRK1); [1]) was 7%, the “Inhibition at 1 µM (%)” value (PKN1 (PRK1); PKN1 (PRK1), 1 µM, ZLYTE, ATP Km app, listed as WEL028, 1 µM) was 5% and the inhibition at 1 µM (PKN1 (PRK1); read-out: Inhibition at 1 µM (%), PKN1 (PRK1), 1 µM, ZLYTE, ATP Km app) was 8%. The IC50 (MAPKAPK5 (PRAK)) was 501 nM, the inhibition at 1 µM (MAPKAPK5 (PRAK); [1]) was 66% and the inhibition at 10 µM (MAPKAPK5 (PRAK); 1 h, log[inhibitor] (M) -5.00, ZLYTE, ATP Km app) was 95%. The inhibition at 3.31 µM (MAPKAPK5 (PRAK); 1 h, log[inhibitor] (M) -5.48, ZLYTE, ATP Km app) was 94%, the inhibition at 1.12 µM (MAPKAPK5 (PRAK); 1 h, log[inhibitor] (M) -5.95, ZLYTE, ATP Km app) was 76% and the inhibition at 0.372 µM (MAPKAPK5 (PRAK); 1 h, log[inhibitor] (M) -6.43, ZLYTE, ATP Km app) was 36%. It also gave an inhibition at 0.04074 µM (MAPKAPK5 (PRAK); 1 h, log[inhibitor] (M) -7.39, ZLYTE, ATP Km app) of 13%, an inhibition at 0.004571 µM (MAPKAPK5 (PRAK); 1 h, log[inhibitor] (M) -[…], ZLYTE, ATP Km app) of 4% and an Apparent fold selectivity (MAPKAPK5 (PRAK); IC50 on that kinase divided by IC50 on FES^S700C) of 112 fold. For the same compound, the “Inhibition at 1 µM (%)” value (MAPKAPK5 (PRAK); MAPKAPK5 (PRAK), 1 µM, ZLYTE, ATP Km app, listed as WEL028, 1 µM) was 70%, the inhibition at 1 µM (MAPKAPK5 (PRAK); read-out: Inhibition at 1 µM (%), MAPKAPK5 (PRAK), 1 µM, ZLYTE, ATP Km app) was 62% and the inhibition at 1 µM (MARK2; [1]) was 8%. The “Inhibition at 1 µM (%)” value (MARK2; MARK2, 1 µM, ZLYTE, ATP Km app, listed as WEL028, 1 µM) was 9%, the inhibition at 1 µM (MARK2; read-out: Inhibition at 1 µM (%), MARK2, 1 µM, ZLYTE, ATP Km app) was 6% and the “Inhibition (%)” value (IRAK4; 1 μM WEL028, 1 h preincubation) was 0%. For the same compound, the “Inhibition at 1 µM (%)” value (IRAK4; IRAK4, 1 µM, ZLYTE, ATP Km app, listed as WEL028, 1 µM) was -3% and 3%, the inhibition at 0.1 µM (~40 kDa protein) was ~10% and the inhibition at 1 µM (EPHA6; [1]) was 6%. The inhibition at 1 µM (EPHA6; read-out: Inhibition at 1 µM (%), EPHA6, 1 µM, LanthaScreen Binding) was 5%, the inhibition at 1 µM (BMPR1B (ALK6); 1 h) was 24% and the inhibition at 1 µM (BMPR1B (ALK6); read-out: Inhibition at 1 µM (%)) was 24%. The inhibition at 1 µM (DYRK4; [1]) was 0%, the “Inhibition at 1 µM (%)” value (DYRK4; DYRK4, 1 µM, ZLYTE, ATP Km app, listed as WEL028, 1 µM) was -4% and 4% and the “Inhibition at 1 µM (%)” value (SNF1LK2; [2]) was -8% and -5%. The inhibition at 1 µM (SNF1LK2; [1]) was -6%, the “Inhibition (%)” value (MASTL; 1 μM WEL028, 1 h preincubation) was 3% and the “Inhibition at 1 µM (%)” value (MASTL; MASTL, 1 µM, LanthaScreen Binding, listed as WEL028, 1 µM) was 6% and 0%. For the same compound, the “Inhibition at 1 µM (%)” value (PTK2B (FAK2); [2]) was 37%, the inhibition at 1 µM (PTK2B (FAK2); [1]) was 34% and the inhibition at 1 µM (PTK2B (FAK2); read-out: Inhibition at 1 µM (%), 1 µM, ZLYTE, ATP Km app) was 32%. The “Inhibition (%)” value (BMPR2; 1 μM WEL028, 1 h preincubation) was 3%, the “Inhibition at 1 µM (%)” value (BMPR2; BMPR2, 1 µM, LanthaScreen Binding, listed as WEL028, 1 µM) was 2% and the inhibition at 1 µM (BMPR2; read-out: Inhibition at 1 µM (%), BMPR2, 1 µM, LanthaScreen Binding) was 4%. The inhibition at 1 µM (GRK7) was 11%, the “Inhibition (%)” value (SYK; 1 μM WEL028, 1 h preincubation) was “did not inhibit” and the “Inhibition at 1 µM (%)” value (SYK; [2]) was 1% and 5%.
